Assay results reported in ChEMBL document CHEMBL5665443, “Enzyme Inhibitor Single Concentration assay results for EUbOPEN Chemogenomics Library” (2024).

Legend:
[1] = molecular target: Methyl-CpG-binding domain protein 4 (Homo sapiens) (UniProt O95243); conditions: Hit No;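 further: MBD4 activity read as fluorescence at 594 nm from cleavage and release of a quenched duplex DNA oligonucleotide, with APE1 coupled to incise the strand and raise turnover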
[2] = molecular target: Endonuclease 8-like 1 (Homo sapiens) (UniProt Q96FI4); conditions: Hit No;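 further: fluorescence at 594 nm from quenched duplex DNA oligonucleotides released by NEIL1 cleavage and strand separation, reported as reduction of this enzyme activity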
Sequence of Endonuclease 8-like 1 (Homo sapiens) (Q96FI4 whole entry): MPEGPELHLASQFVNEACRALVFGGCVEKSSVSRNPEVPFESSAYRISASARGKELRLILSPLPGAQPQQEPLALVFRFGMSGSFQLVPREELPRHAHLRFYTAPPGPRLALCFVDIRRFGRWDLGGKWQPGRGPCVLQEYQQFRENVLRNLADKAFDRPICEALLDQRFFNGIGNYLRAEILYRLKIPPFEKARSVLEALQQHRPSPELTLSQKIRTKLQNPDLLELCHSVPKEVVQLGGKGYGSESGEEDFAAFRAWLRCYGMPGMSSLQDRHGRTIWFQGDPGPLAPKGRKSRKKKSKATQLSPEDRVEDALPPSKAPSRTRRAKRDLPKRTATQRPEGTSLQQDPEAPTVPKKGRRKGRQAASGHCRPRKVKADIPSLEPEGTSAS

[3] = molecular target: T1, Endonuclease III-like protein 1 (Homo sapiens) (UniProt P78549); conditions: Hit No;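 further: enzyme assay tracking NTHL1 cutting and release of a quenched double-stranded DNA oligo substrate, read as fluorescence at 594 nm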
T1 sequence (whole entry): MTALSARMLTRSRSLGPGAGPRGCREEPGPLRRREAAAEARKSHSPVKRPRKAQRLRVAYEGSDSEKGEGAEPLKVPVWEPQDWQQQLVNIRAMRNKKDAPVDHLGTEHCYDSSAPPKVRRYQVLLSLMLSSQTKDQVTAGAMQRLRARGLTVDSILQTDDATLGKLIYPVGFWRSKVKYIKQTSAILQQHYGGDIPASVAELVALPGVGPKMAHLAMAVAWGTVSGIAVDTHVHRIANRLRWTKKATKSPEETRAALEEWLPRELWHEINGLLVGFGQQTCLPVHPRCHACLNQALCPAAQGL

[4] = molecular target: T2, Single-strand selective monofunctional uracil DNA glycosylase (Homo sapiens) (UniProt Q53HV7); conditions: Hit No;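 further: enzymatic SMUG1 assay coupled with APE1, reading fluorescence at 594 nm released when a quenched double-stranded DNA oligonucleotide substrate is cleaved and separated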
T2 sequence (whole entry): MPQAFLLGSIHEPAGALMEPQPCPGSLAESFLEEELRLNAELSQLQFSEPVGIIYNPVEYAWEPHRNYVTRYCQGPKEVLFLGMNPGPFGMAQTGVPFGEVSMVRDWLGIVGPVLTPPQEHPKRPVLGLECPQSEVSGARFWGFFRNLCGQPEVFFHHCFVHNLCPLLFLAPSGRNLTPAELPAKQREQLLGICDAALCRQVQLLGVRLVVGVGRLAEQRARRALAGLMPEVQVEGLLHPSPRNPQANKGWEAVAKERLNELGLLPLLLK

[5] = molecular target: G/T mismatch-specific thymine DNA glycosylase (Homo sapiens) (UniProt Q13569); conditions: Hit No;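 further: human TDG cleavage of quenched duplex DNA oligonucleotides coupled to APE1, strand release read as fluorescence at 594 nm, inhibition of TDG activity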
Sequence of G/T mismatch-specific thymine DNA glycosylase (Homo sapiens) (Q13569 whole entry): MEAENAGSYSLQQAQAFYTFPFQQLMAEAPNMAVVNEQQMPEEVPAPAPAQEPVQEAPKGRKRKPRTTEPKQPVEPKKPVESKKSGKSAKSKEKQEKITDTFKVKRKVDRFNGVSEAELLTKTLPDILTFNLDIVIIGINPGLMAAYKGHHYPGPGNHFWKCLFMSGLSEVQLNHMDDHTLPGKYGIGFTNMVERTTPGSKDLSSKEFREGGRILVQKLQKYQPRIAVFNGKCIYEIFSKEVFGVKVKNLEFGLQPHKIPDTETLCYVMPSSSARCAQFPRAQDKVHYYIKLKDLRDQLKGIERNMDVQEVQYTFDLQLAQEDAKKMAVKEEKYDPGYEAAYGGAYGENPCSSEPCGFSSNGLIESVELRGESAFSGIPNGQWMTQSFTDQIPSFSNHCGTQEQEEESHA

[6] = molecular target: Uracil-DNA glycosylase (Homo sapiens) (UniProt P13051); conditions: Hit No;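 further: UNG excision on a quenched double-stranded DNA oligo probe, with APE1 added for strand incision and turnover, read as fluorescence at 594 nm as strands separate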
Sequence of Uracil-DNA glycosylase (Homo sapiens) (P13051 whole entry): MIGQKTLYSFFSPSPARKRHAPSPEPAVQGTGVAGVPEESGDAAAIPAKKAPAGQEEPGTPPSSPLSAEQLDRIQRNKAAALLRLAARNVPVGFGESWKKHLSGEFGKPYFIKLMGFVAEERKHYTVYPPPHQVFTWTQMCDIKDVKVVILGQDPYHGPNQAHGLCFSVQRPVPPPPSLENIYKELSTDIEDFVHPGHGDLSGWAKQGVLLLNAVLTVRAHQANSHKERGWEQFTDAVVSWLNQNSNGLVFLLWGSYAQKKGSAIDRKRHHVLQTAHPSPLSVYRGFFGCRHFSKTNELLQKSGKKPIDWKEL

[7] = molecular target: T3, Endonuclease 8-like 2 (Homo sapiens) (UniProt Q969S2); conditions: Compound Concentration 10.0 uM, Hit No;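 further: fluorescence at 594 nm reports NEIL2 cutting and release of a quenched double-stranded DNA oligo substrate, reduced signal read as inhibition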
T3 sequence (whole entry): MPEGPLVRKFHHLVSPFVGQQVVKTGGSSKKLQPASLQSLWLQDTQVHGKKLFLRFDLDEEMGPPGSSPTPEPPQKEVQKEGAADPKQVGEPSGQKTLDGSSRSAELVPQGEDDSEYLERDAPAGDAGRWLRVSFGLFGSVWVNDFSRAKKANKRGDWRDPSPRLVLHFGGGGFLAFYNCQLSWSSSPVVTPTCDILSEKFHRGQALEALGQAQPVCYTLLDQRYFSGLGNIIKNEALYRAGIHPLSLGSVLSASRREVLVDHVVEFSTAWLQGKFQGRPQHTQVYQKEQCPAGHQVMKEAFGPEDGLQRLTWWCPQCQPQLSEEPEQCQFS
Description: Inhibition of NEIL2 by quantifying inhibition of NEIL2-mediated cleavage and dissociation of quenched duplex DNA oligonucleotides, measured as fluorescence at 594 nm.

[8] = molecular target: N-glycosylase/DNA lyase (Homo sapiens) (UniProt O15527); conditions: Hit No;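 further: OGG1 cleavage of a quenched duplex DNA oligonucleotide, coupled to APE1 for strand incision, read as fluorescence at 594 nm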
Sequence of N-glycosylase/DNA lyase (Homo sapiens) (O15527 whole entry): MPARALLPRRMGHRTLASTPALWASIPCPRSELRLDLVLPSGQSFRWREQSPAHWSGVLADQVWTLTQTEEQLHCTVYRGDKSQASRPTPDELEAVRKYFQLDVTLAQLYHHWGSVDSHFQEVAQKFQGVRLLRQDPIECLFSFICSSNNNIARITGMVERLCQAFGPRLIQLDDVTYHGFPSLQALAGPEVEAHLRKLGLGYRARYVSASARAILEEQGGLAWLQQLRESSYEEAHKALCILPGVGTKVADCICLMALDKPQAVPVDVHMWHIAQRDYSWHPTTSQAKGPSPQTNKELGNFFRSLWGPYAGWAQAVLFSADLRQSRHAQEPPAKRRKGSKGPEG
Description: Inhibition of OGG1 by quantifying inhibition of OGG1-mediated cleavage and dissociation of quenched duplex DNA oligonucleotides, measured as fluorescence at 594 nm. To generate a functional strand incision and increase turn-over this assay is coupled to APE1.

Sequence of Methyl-CpG-binding domain protein 4 (Homo sapiens) (O95243 whole entry, the tested form may be a part): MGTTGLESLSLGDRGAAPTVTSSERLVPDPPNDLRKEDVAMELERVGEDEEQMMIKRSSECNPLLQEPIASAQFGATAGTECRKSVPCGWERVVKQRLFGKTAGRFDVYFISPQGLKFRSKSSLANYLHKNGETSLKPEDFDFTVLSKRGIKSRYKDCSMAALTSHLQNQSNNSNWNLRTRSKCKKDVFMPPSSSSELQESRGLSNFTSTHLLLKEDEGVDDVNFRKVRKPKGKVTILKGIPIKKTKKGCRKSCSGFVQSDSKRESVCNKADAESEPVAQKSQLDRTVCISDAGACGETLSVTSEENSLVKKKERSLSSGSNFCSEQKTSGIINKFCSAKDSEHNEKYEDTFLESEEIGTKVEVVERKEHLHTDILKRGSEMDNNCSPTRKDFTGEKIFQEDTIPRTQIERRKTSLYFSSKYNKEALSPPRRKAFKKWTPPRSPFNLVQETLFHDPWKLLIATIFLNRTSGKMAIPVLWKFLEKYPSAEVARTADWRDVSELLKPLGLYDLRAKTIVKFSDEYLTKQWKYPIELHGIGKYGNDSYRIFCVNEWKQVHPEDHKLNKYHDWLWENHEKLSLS

| Structure (SMILES) | inhibition ([1]; Compound Concentration 10.0 uM) [%] | inhibition ([2]; Compound Concentration 10.0 uM) [%] | inhibition ([3]; Compound Concentration 10.0 uM) [%] | inhibition ([4]; Compound Concentration 10.0 uM) [%] | inhibition ([5]; Compound Concentration 10.0 uM) [%] | inhibition ([6]; Compound Concentration 10.0 uM) [%] | inhibition ([1]; Compound Concentration 1.0 uM) [%] | inhibition ([2]; Compound Concentration 1.0 uM) [%] | inhibition ([3]; Compound Concentration 1.0 uM) [%] | inhibition ([4]; Compound Concentration 1.0 uM) [%] | inhibition ([5]; Compound Concentration 1.0 uM) [%] | inhibition ([6]; Compound Concentration 1.0 uM) [%] | inhibition [7] [%] | inhibition ([8]; Compound Concentration 10.0 uM) [%] | inhibition ([8]; Compound Concentration 1.0 uM) [%] |
| --- | --- | --- | --- | --- | --- | --- | --- | --- | --- | --- | --- | --- | --- | --- | --- |
| COc1ccc([C@@H]2Sc3ccccc3N(CCN(C)C)C(=O)[C@@H]2OC(C)=O)cc1 | -5.04 | 3.71 | 30.3 | 0.325 | -1.73 | -4.36 |  |  |  |  |  |  |  |  |  |
| CCOc1cn(-c2ccc(F)cc2C)nc1C(=O)Nc1ccc(Oc2ccnc3cc(OC)c(OC)cc23)c(F)c1 |  |  |  |  |  |  | 31.6 | 0.138 | -2 | 21.7 | 46.5 | 1.39 |  |  |  |
| COc1ccnc(N2CCC3(CCCN(Cc4c[nH]c5ccccc45)C3=O)CC2)n1 | -0.547 | 9.14 | 6.32 | 15.5 | 4.73 |  |  |  |  |  |  |  | -0.983 | -2.11 |  |
| N#CC1(c2ccccn2)CCN(Cc2cc(C(=O)O)c(=O)n3ccccc23)CC1 | 93 | -0.139 | -9.18 |  | 45.8 | 1.66 |  |  |  |  |  |  | 0.531 | -3.75 |  |
| COc1cc(C(=O)O)ncc1C#Cc1ccccc1NS(=O)(=O)c1cccc2c(N(C)C)ccnc12 | 66.6 | -0.29 | -8.52 | 6.29 | 46.3 | 2.52 |  |  |  |  |  |  | 6.91 |  |  |
| O=C(O)[C@@H]1[C@@H](Cn2nnc3ccccc3c2=O)CC[C@H]1C(=O)c1ccc(OCCC2CCOCC2)cc1 | 57.8 |  | -5.23 | 18.6 | 49.2 | 2.54 |  |  |  |  |  |  |  | 7.75 |  |
| CCc1cc(Nc2nccc(-c3c(-c4ccc(OC)c(C(=O)Nc5c(F)cccc5F)c4)nc4ccccn34)n2)c(OC)cc1N1CCC(N2CCN(S(C)(=O)=O)CC2)CC1 |  |  |  |  |  |  | 32.9 | -8.84 | -1.31 | 21.4 | 50.7 | 0.56 |  |  | 10.7 |
| CN(C)C(=O)c1sc2nc(N3CCC(S(C)(=O)=O)CC3)cc(C(F)(F)F)c2c1N | 1.76 | -3.24 | 2.05 | -2.07 | -5.21 |  |  |  |  |  |  |  |  | -1.24 |  |
| CNC[C@H](O)c1cccc(O)c1 | -3.74 | -4.8 | -9.8 | -2.99 | -5.83 |  |  |  |  |  |  |  | 7.25 | -3.42 |  |
| C[C@H](Cc1cc2c(c(C(N)=O)c1)N(CCCO)CC2)NCCOc1ccccc1OCC(F)(F)F |  | -4.21 | -1.01 | 1.13 | 2.34 | -9.87 |  |  |  |  |  |  | -1.48 | -6.28 |  |
| CC(C)(C)OC(=O)N1CCCC1CNC1CCC(c2cc(F)ccc2F)(S(=O)(=O)c2ccc(Cl)cc2)CC1 (stereo not given) | 45.5 |  | -1.29 | 19.7 | 17.3 | 1.86 |  |  |  |  |  |  |  | 4.85 |  |
| C[C@H](NC(=O)c1cnc2n1[C@](C)(Cc1ccc(C#N)cc1)C(=O)N2c1cc(Cl)c(F)c(Cl)c1)C(=O)NC1(c2ccccn2)CC1 | 60.9 | 5.16 | -4.57 | 22.8 | 52.5 | 7.8 |  |  |  |  |  |  | -4.83 |  |  |
| Cc1n[nH]c2ncc(C(=O)N3CCC[C@H]3c3ccc(Cl)cc3)cc12 |  |  |  |  |  |  | 9.29 | -3.69 | 7.06 | 8.72 | 31.7 | -1.69 |  |  | -6.69 |
| Cn1ncnc1COc1nn2c(-c3c(F)cccc3F)nnc2cc1C1CCC1 | -5.71 | 7.71 | 22.9 | 1.23 | 15.4 | -7.24 |  |  |  |  |  |  | -3.41 |  |  |
| CC1=C2C[C@H]3[C@@H](CC=C4C[C@@H](O)CC[C@@]43C)[C@@H]2CC[C@]12O[C@@H]1C[C@H](C)CN[C@H]1[C@H]2C |  | -3.61 | -6.14 | 2.68 | 5.99 | -9.72 |  |  |  |  |  |  | 1.26 | -3.73 |  |
